Experimental data: the CheMixHub viscosity set
“And” between values parts separate entries of the source, which are not always exact repeats. Equal values may be shown once.

How the values were obtained:
[1] = xn = mol fraction of the nth substance listed

C1CCC2=[NH+]CCCN2CC1.c1nc[n-]n1 + CS(C)=O
[1], 303.15 K, 100 kPa
Conditions	viscosity [mPa·s]
x1 = 0.1001	3.86
x1 = 0.2	7.19
x1 = 0.2999	12.29
x1 = 0.4003	22.17
x1 = 0.4989	39.73
x1 = 0.6002	77.3
x1 = 0.7008	152.3
x1 = 0.7993	309.9
x1 = 0.9002	586.4

CCCCCOC(C)=O
viscosity
Conditions	293.15 K	303.15 K	313.15 K	323.15 K
101 kPa	–	–	0.663 mPa·s	0.589 mPa·s
101.3 kPa	–	0.7522 mPa·s and 0.7522 mPa·s	–	–
101.33 kPa	0.931 mPa·s	0.805 mPa·s	0.676 mPa·s	0.552 mPa·s

CCCCCOC(C)=O + CO
[1], 303.15 K, 101.3 kPa
Conditions	viscosity [mPa·s]
x1 = 0.0524	0.537
x1 = 0.1018	0.561
x1 = 0.1038	0.533
x1 = 0.1608	0.547
x1 = 0.1934	0.608
x1 = 0.3024	0.652
x1 = 0.4255	0.695
x1 = 0.5168	0.719
x1 = 0.5951	0.733
x1 = 0.6976	0.753
x1 = 0.791	0.775
x1 = 0.8949	0.794

ClCC(Cl)Cl + CC(C)=O
[1], 298.15 K, 101 kPa
Conditions	viscosity [mPa·s]
x2 = 0.212	0.91
x2 = 0.366	0.799
x2 = 0.497	0.677
x2 = 0.611	0.577
x2 = 0.704	0.509
x2 = 0.779	0.456
x2 = 0.837	0.411
x2 = 0.949	0.347

C=CC(=O)OC + CCCCCCC
viscosity [mPa·s], [1], 100 kPa
Conditions	x1 = 0.1065	x1 = 0.2053	x1 = 0.3084	x1 = 0.4061	x1 = 0.5019	x1 = 0.6048	x1 = 0.703	x1 = 0.8014	x1 = 0.9456
303.15 K	0.367	0.361	0.36	0.362	0.367	0.375	0.387	0.402	0.426
308.15 K	0.337	0.333	0.332	0.336	0.343	0.353	0.365	0.381	0.406
313.15 K	0.329	0.326	0.325	0.326	0.332	0.341	0.352	0.366	0.388

CC(C)(C)c1ccccc1 + CCCCCCCCCCCC
viscosity [mPa·s], [1], 102 kPa
Conditions	x1 = 0.1017	x1 = 0.2009	x1 = 0.2995	x1 = 0.4002	x1 = 0.5001	x1 = 0.5979	x1 = 0.699	x1 = 0.8	x1 = 0.9006
293.15 K	1.43	1.37	1.32	1.27	1.22	1.18	1.16	1.14	1.13
303.15 K	1.2	1.16	1.12	1.08	1.05	1.02	0.998	0.982	0.975
313.15 K	1.03	0.998	0.971	0.942	0.916	0.895	0.874	0.859	0.854
323.15 K	0.9	0.872	0.846	0.825	0.804	0.787	0.77	0.758	0.752

C=CC(=O)OC + CCCCO
viscosity [mPa·s], [1], 101.33 kPa
Conditions	308.15 K	318.15 K
x1 = 0.0466	1.721	1.393
x1 = 0.1448	1.322	1.115
x1 = 0.2429	1.042	0.908
x1 = 0.3387	0.847	0.755
x1 = 0.4481	0.688	0.625
x1 = 0.5003	0.63	0.575
x1 = 0.5436	0.589	0.539
x1 = 0.6469	0.512	0.468
x1 = 0.7461	0.459	0.416
x1 = 0.8469	0.422	0.375
x1 = 0.9456	0.399	0.346

CC(C)CO + O
[1]
Conditions	viscosity [mPa·s]
293.15 K, 101.33 kPa, x1 = 0.0049	1.124
293.15 K, 101.33 kPa, x1 = 0.01	1.222
293.15 K, 101.33 kPa, x1 = 0.015	1.332
293.15 K, 101.33 kPa, x1 = 0.021	1.453
298 K, 101 kPa, x2 = 0.2	3.148
298 K, 101 kPa, x2 = 0.4	3.209
299 K, 101 kPa, x2 = 0.1	3.13
299 K, 101 kPa, x2 = 0.45	3.156
300 K, 101 kPa, x2 = 0.3	2.95
303 K, 101 kPa, x1 = 0.01	0.931
303 K, 101 kPa, x2 = 0.1	2.753
303 K, 101 kPa, x2 = 0.2	2.679
303 K, 101 kPa, x2 = 0.3	2.676
303 K, 101 kPa, x2 = 0.4	2.719
303 K, 101 kPa, x2 = 0.45	2.761
303.15 K, 101.33 kPa, x1 = 0.0049	0.899
303.15 K, 101.33 kPa, x1 = 0.01	0.967
303.15 K, 101.33 kPa, x1 = 0.015	1.04
303.15 K, 101.33 kPa, x1 = 0.021	1.119
313 K, 101 kPa, x1 = 0.01	0.7483
313 K, 101 kPa, x2 = 0.1	2.041
313 K, 101 kPa, x2 = 0.2	1.985
313 K, 101 kPa, x2 = 0.3	1.976
313 K, 101 kPa, x2 = 0.4	2.002
313 K, 101 kPa, x2 = 0.45	2.025
313.15 K, 101.33 kPa, x1 = 0.0049	0.721
313.15 K, 101.33 kPa, x1 = 0.01	0.767
313.15 K, 101.33 kPa, x1 = 0.015	0.815
323 K, 101 kPa, x1 = 0.01	0.6161
323 K, 101 kPa, x2 = 0.1	1.55
323 K, 101 kPa, x2 = 0.2	1.51
323 K, 101 kPa, x2 = 0.3	1.502
323 K, 101 kPa, x2 = 0.4	1.517
323 K, 101 kPa, x2 = 0.45	1.531
323.15 K, 101.33 kPa, x1 = 0.0049	0.604
323.15 K, 101.33 kPa, x1 = 0.01	0.642
323.15 K, 101.33 kPa, x1 = 0.015	0.675

CCCCCOC(C)=O + Cc1ccc(O)cc1
Conditions	viscosity [mPa·s]
[1], 298.15 K, 101 kPa, x2 = 0.5	1.169

C=CC(=O)OC + CO
viscosity [mPa·s], [1], 101.33 kPa
Conditions	308.15 K	318.15 K
x1 = 0.0546	0.464	0.419
x1 = 0.157	0.443	0.412
x1 = 0.2569	0.426	0.404
x1 = 0.3537	0.413	0.397
x1 = 0.453	0.403	0.388
x1 = 0.501	0.399	0.384
x1 = 0.5588	0.394	0.379
x1 = 0.655	0.39	0.369
x1 = 0.7566	0.387	0.359
x1 = 0.8561	0.387	0.349
x1 = 0.9556	0.389	0.338

Cc1nc(C)n(C)c1C + O
viscosity [mPa·s], [1], 100 kPa
Conditions	x1 = 0.0159	x1 = 0.035	x1 = 0.0585	x1 = 0.0882	x1 = 0.127
298.15 K	1.258	1.817	2.65	3.86	5.77
303.15 K	1.125	1.61	2.31	3.35	4.91
313.15 K	0.899	1.244	1.733	2.53	3.36
323.15 K	0.756	0.998	1.344	1.806	2.44
